Results reported in US6043241A, “Ketoacid endothelin antagonists” (Warner-Lambert Company, priority 1998, dated 2000).
Where a SMILES comes first, the peptide text is derived from it. [ ]: non-standard residue; d: D form.

Experiments:
pulmonary hypertension = details: rat hypoxia model; cited from earlier work
early cerebral vasospasm [1] = details: in vivo; cited from earlier work
chronic heart failure = details: patients with chronic heart failure; cited from earlier work
acute renal ischemia = details: in vivo; cited from earlier work
[2] = system: ET-1-induced changes in gastric mucosal hemodynamics; details: in vivo; cited from earlier work
human ETA R = biological target: T1, human ETA R (Homo sapiens, UniProt P25101); test: Competition radioligand binding assay, [125I]-ET-1, Ltk- cells expressing human ETA R (HERBA A); details: Ltk- cell membranes, 40 pM [125I]-ET-1, 2 hours at 37° C
T1 construct: expressed in transfected cells; host or cells: Ltk- cells (membranes)
T1 sequence (P25101 21-427): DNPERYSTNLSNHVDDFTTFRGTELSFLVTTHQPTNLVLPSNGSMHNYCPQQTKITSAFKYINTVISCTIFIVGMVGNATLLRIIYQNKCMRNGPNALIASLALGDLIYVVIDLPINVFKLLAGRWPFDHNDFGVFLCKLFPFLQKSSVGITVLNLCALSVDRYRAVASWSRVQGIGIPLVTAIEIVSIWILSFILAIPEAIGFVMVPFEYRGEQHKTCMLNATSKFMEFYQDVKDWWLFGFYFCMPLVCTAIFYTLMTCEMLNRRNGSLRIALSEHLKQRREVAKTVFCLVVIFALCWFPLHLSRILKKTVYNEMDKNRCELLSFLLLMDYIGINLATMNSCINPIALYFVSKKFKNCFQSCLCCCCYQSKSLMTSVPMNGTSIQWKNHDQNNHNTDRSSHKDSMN
Protocol: (§1) The following cultured cells were used in binding experiments: CHO-K1 cells expressing recombinant human ETB R (HERBA B), or Ltk^- cells expressing human ETA R (HERBA A). […] Membranes were prepared from cultured cells by lysing cells in cold lysis buffer (5 mM HEPES, 2 mM EDTA, pH 7.4) and homogenizing with a Dounce "A" homogenizer. All of the homogenates were centrifuged at 30,000×g for 20 minutes at 4° C. Membrane pellets were resuspended in cold buffer containing 20 mM Tris, 2 mM EDTA, 200 μM Pefablock, 10 μM phosphoramidon, 10 μM leupeptin, and 1 μM pepstatin (pH 7.4) and frozen at -80° C. until use. Radioligand and competing ligands were prepared in binding buffer containing 20 mM Tris, 2 mM EDTA, and 0.1% BSA.
(§2) The assay was terminated by filtration over Whatman GF/B filters that were presoaked with 50 mM Tris, pH 7.4, containing 0.2% BSA and 100 μM bacitracin. […] binding was defined as total binding minus nonspecific binding.

human ETB R = biological target: T2, human ETB R (Homo sapiens, UniProt P24530); test: Competition radioligand binding assay, [125I]-ET-1, CHO-K1 cells expressing recombinant human ETB R (HERBA B); details: CHO-K1 cell membranes, 40 pM [125I]-ET-1, 2 hours at 37° C
T2 construct: expressed in transfected cells; host or cells: CHO-K1 cells (membranes)
T2 sequence (P24530 27-442): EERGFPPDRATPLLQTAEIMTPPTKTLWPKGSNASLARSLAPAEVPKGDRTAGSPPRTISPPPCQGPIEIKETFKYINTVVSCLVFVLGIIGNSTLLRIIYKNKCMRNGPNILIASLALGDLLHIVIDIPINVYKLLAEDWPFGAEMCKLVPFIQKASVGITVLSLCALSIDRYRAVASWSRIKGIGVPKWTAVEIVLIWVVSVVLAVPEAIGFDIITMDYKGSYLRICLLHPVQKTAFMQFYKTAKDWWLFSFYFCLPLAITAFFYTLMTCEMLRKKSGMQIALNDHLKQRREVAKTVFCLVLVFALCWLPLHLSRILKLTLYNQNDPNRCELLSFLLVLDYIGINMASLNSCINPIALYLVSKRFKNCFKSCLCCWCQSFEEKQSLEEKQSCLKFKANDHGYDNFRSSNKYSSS
Protocol: as §1, §2

prostate smooth muscle = details: in vivo; cited from earlier work
[3] = system: middle cerebral artery occlusion; details: cats, IV; cited from earlier work
early cerebral vasospasm [4] = details: rat SAH; cited from earlier work
neointima formation = details: rats, carotid artery balloon angioplasty; cited from earlier work
[5] = system: basilar artery vasoconstriction; details: canine two-hemorrhage model of SAH, after 7 days; cited from earlier work
small intestinal mucosa = details: rats, local intra-arterial; cited from earlier work
liver = details: cited from earlier work
[6] = system: isolated cerebral arterioles; details: cited from earlier work

Compound: CC(C)C[C@@H]1NC(=O)[C@@H](C(C)C)NC(=O)[C@@H]2CCCN2C(=O)[C@@H](CC(=O)O)NC(=O)[C@@H](Cc2c[nH]c3ccccc23)NC1=O [BQ-123] (cyclo(L[dW][dD]P[dV]))
- increase in pulmonary vascular resistance and pulmonary arterial pressure (pulmonary hypertension): lowering the increase in pulmonary vascular resistance and pulmonary arterial pressure
- early cerebral vasospasm following SAH (early cerebral vasospasm [1]): prevent early cerebral vasospasm

Compound: COc1ccccc1Oc1c(NS(=O)(=O)c2ccc(C(C)(C)C)cc2)nc(-c2ncccn2)nc1OCCO [Bosentan]
- cardiac performance (chronic heart failure): improve cardiac performance
- increase in pulmonary vascular resistance and pulmonary arterial pressure (pulmonary hypertension): lowering the increase in pulmonary vascular resistance and pulmonary arterial pressure
- efficacy in models of acute renal ischemia (acute renal ischemia): effective in models of acute renal ischemia
- ET-1-induced changes in gastric mucosal hemodynamics and ET-1-induced gastric ulceration [2]: antagonist toward the ET-1-induced changes in gastric mucosal hemodynamics as well as on ET-1-induced gastric ulceration

Compound: COc1ccc(C(=O)/C(Cc2cc(OC)c(OC)c(OC)c2)=C(/C(=O)O)c2ccc3c(c2)OCO3)cc1 [Example 1, (E)-2-Benzo[1,3]dioxol-5-yl-4-(4-methoxy-phenyl)-4-oxo-3-(3,4,5-trimethoxy-benzyl)-but-2-enoic acid]
- IC50 (human ETA R): 65 nM
- IC50 (human ETB R): > 2500 nM

Compound: COc1ccc(/C(C(=O)O)=C(/Cc2ccc3c(c2)OCO3)C(=O)c2cc(OC)c(OC)c(OC)c2)cc1 [Example 2, (E)-3-Benzo[1,3]dioxol-5-ylmethyl-2-(4-methoxy-phenyl)-4-oxo-4-(3,4,5-trimethoxy-phenyl)-but-2-enoic acid]
- IC50 (human ETA R): 58 nM
- IC50 (human ETB R): 10000 nM

Compound: CCOc1ccc(C(=O)/C(Cc2cc(OC)c(OC)c(OC)c2)=C(/C(=O)O)c2cc(OC)c3c(c2)OCO3)cc1C [Example 3]
- IC50 (human ETA R): 70 nM
- IC50 (human ETB R): > 2500 nM

Compound: COc1ccc(C2(O)OC(=O)C(c3ccc4c(c3)OCO4)=C2Cc2ccccc2)cc1 (stereo not drawn) [PD 155080]
- prostate smooth muscle function (prostate smooth muscle): mediate prostate smooth muscle function in vivo

Compound: COc1ccc(C2(O)OC(=O)C(c3ccc4c(c3)OCO4)=C2Cc2cc(OC)c(OC)c(OC)c2)cc1 (stereo not drawn) [PD 156707]
- increase in pulmonary vascular resistance and pulmonary arterial pressure (pulmonary hypertension): lowering the increase in pulmonary vascular resistance and pulmonary arterial pressure
- volume of ischemic damage in the cerebral hemisphere [3]: significantly reduced

Compound: COc1cccc(Oc2c(NS(=O)(=O)c3ccc(C(C)(C)C)cc3)ncnc2OCCO)c1 [Ro 46-2005]
- systemic arterial blood pressure (early cerebral vasospasm [4]): no significant effect on systemic arterial blood pressure

Compound: CCCOc1ccc2c(c1)[C@@H](c1ccc(OC)cc1OCC(=O)O)[C@H](C(=O)O)[C@H]2c1ccc2c(c1)OCO2 [SB 209670]
- neointima formation (neointima formation): ameliorate neointima formation

Compound: FR 139317
- vasoconstriction of the basilar artery [5]: significantly inhibited the vasoconstriction of the basilar artery

Compound: endothelin
- small intestinal mucosal damage (small intestinal mucosa): induce small intestinal mucosal damage in rats in a dose-dependent manner
- hepatic vasculature vasoconstriction and hepatic glucose output (liver): sustained vasoconstriction of the hepatic vasculature and a significant increase in hepatic glucose output
- vasoconstrictor action on isolated cerebral arterioles [6]: potent vasoconstrictor action
